System: phospho-p300 (Ser1834)
Test: Immunoblot with phospho-p300 (Ser1834) antibody
Assay type: cell-based, human
Settings: within 15 min, compared to un-stimulated cells
Protocol: Immunoblots: Cell lysates were prepared in lysis buffer containing 20 mM Tris-HCl pH 7.5, 150 mM NaCl, 1 mM EDTA, 1 mM EGTA, 1 mM sodium fluoride, 1 mM sodium orthovanadate, 2.5 mM sodium pyrophosphate, protease inhibitor cocktail (Sigma-Aldrich) and 1% (v/v) Triton X-100. The lysates were electrophoretically resolved on a 4-12% NuPAGE® Bis-Tris gels (Invitrogen Corporation, Burlington, ON, Canda), followed by transfer to nitrocellulose membranes (Millipore, Canada). The membranes were subsequently probed with either phospho-p300 (Ser1834) polyclonal antibody, monoclonal antibody against phospho-DAPK (Ser308) or monoclonal antibody to glyceraldehyde-3-phosphate dehydrogenase (GAPDH) in TBST (20 mM Tris pH 7.5, 150 mM NaCl, 0.1% Tween 20) containing 5% skimmed milk powder. Affinity purified HRP-linked horse anti-mouse or goat anti-rabbit antibodies were used for detection as required. The membranes were development with Amersham ECL detection system (GE Healthcare, Baie d'Urfe QC, Canada) according to the manufacturer's instructions.
Immunoblots: Cell lysates were prepared in lysis buffer containing 20 mM Tris-HCl pH 7.5, 150 mM NaCl, 1 mM EDTA, 1 mM EGTA, 1 mM sodium fluoride, 1 mM sodium orthovanadate, 2.5 mM sodium pyrophosphate, protease inhibitor cocktail (Sigma-Aldrich Canada Inc.) and 1% (v/v) Triton X-100. […]

Substance: IL-17: Recombinant human cytokine IL-17A/F from eBioscience, used as stimulant
- Phosphorylation of p300 (Ser1834) by immunoblot: increased phosphorylation

— US20130123201A1, “MODULATION OF CYTOKINE-INDUCED CHRONIC INFLAMMATORY RESPONSES” (UNIVERSITY OF MANITOBA, priority 2010, published 2013)
